Experimental data: patent US4777290A, “10,10-dihydro-10-[(substituted-carbonyl)imino]-10-phe nyl-10H-phenoxaphosphines” (American Cyanamid Company, priority 1987, dated 1988)
Where “and” joins values, the source holds several entries; their conditions need not be identical. Equal values may be shown once. Where a name gives a salt, the structure may show the parent alone.

Columns and labels:
[1] = system: Spontaneously Hypertensive Rats; assay: Diuretic activity in spontaneously hypertensive rats; assay type: in vivo, male spontaneously hypertensive rats of Okamoto strain; conditions: 0-5 hour urine
Description: The diuretic activity of the compounds of this invention was determined according to the method of Chan, P. S. and Poorvin, D., Sequential method for combined screening antihypertensive and diuretic agents in the same spontaneously hypertensive rat. Clinical and Experimental Hypertension, 1 (6), 817-830 (1979).
Male spontaneously hypertensive rats of Okamoto strain, 16 weeks old, Taconic Farms Inc., were used in the test. These rats were kept on Purina laboratory chow and tap water ad libitum for 8 weeks before use. The male adult rats (about 300 g) were dosed by gavage with a test compound at 100 mg/kg at zero hour with the exception of one male adult rat in which the test compound dosage was 50 mg/kg. The test compound was suspended in 3% preboiled starch at 50 mg/ml. Each rat was put in metabolism cage. The 0-5 hour urine was collected and urinary sodium and potassium were determined using a Beckman Astra 4.

plasma renin activity = assay: Inhibition of evoked increase of plasma renin activity (PRA) in conscious rats; assay type: in vivo, male Wistar rats; conditions: oral, 30 min before provocative treatment, Wistar rats
Description: Inhibition of evoked increase of plasma renin activity was determined by the following test.
Compounds were tested for their ability to prevent drug-induced elevation of plasma renin activity (PRA) in concious, male Wistar rats (180-200 g, Charles River Lab.). PRA elevation was induced by a combined oral provocative treatment (C) of hydrochlorothiazide (10 mg/kg) and 1-(3-benzoyl-3-mercapto-2-methylpropionyl-L-proline, acetate (U.S. Pat. No. 4,226,775) (1 mg/kg), prepared by compounding in a mortar and pestle with preboiled 3% starch suspension. This treatment provided the daily maximum PRA. The daily minimum PRA was obtained from rats given oral starch suspension (S) alone. The magnitude of drug effect on PRA elevation was ascertained from rats pretreated orally with test agent (D), at the indicated doses, 30 minutes prior to administration of provocative treatment (C). The test agent was also compounded in preboiled 3% starch suspension. The dose volumes for both pretreatment and provocative treatment were 2 ml/kg. One hour after provocative treatment the rats were sacrificed by decapitation and the first 3 seconds of blood collected in two chilled vacutainer tubes containing 40 μl of 150 mg/ml tripotassium EDTA. The plasmas, which were obtained by centrifugation for 20 minutes at 4° C. and 3000×G, were incubated (one of each pair at 37° C., the other at 4° C.) at pH 6.8 in 50 mM phosphate buffer to produce angiotensin I. The incubates contained peptidase inhibitors to prevent angiotensin I degradation and the incubation buffer contained 1 mg/ml lysozyme (Sigma Grade III) used as an antiabsorbant. The incubates were diluted 20 fold in cold 100 mM tris buffer (pH adjusted to 7.4 with glacial acetic acid) also containing 1 mg/ml lysozyme, and then frozen. Diluted incubates were assayed within 3 days for angiotensin I content by radioimmunoassay according to a modification of the method of Haber, et al., J. Clin. Endocrin., 29, 1349-1355 (1969).
PRA is calculated as follows:
PRA([…])=PRA 37° C.-PRA 4° C.
Percent inhibition of PRA elevation is calculated as follows: [formula]

Stability in solution = assay type: physicochemical
[2] = 100 mg/kg by gavage, hydrobromide
[3] = 100 mg/kg by gavage, hydrochloride

Q: Which “Potassium (urinary)” value ([1]; 100 mg/kg by gavage) does the source give for `COC(=O)N=P1(c2ccccc2)c2ccccc2Oc2ccccc21` [10,10-Dihydro-10-[(methoxycarbonyl)imino]-10-phenyl-10H-phenoxaphosphine] here?
A: 0.74 MEQ/5 Hours

Q: What about the “Sodium (urinary)” value ([1]; 100 mg/kg by gavage) of the same molecule?
A: 1.48 MEQ/5 Hours

Q: What about the “Volume (urine)” value ([1]; 100 mg/kg by gavage) of the same molecule?
A: 14.0 mL

Q: Which results are given for `O=C(N=P1(c2ccccc2)c2ccccc2Oc2ccccc21)OCc1cccnc1` [10,10-Dihydro-10-phenyl-10-[[(3-pyridylmethoxy)carbonyl]imino]-10H-phenoxaphosphine]?
A: Potassium (urinary) ([1]; 100 mg/kg by gavage): 0.59 MEQ/5 Hours; Sodium (urinary) ([1]; 100 mg/kg by gavage): 2.61 MEQ/5 Hours; Volume (urine) ([1]; 100 mg/kg by gavage): 20.5 mL

Q: With `CC(C)COC(=O)N=P1(c2ccccc2)c2ccccc2Oc2ccccc21` [10,10-Dihydro-10-[[(2-methylpropoxy)carbonyl]-imino]-10-phenyl-10H-phenoxaphosphine] as the molecule, how does the “Potassium (urinary)” value ([1]; 100 mg/kg by gavage) read?
A: 0.64 MEQ/5 Hours

Q: What about the “Sodium (urinary)” value ([1]; 100 mg/kg by gavage) of the same molecule?
A: 1.63 MEQ/5 Hours

Q: What about the “Volume (urine)” value ([1]; 100 mg/kg by gavage) of the same molecule?
A: 12.8 mL

Q: What does the source list for `C=CCOC(=O)N=P1(c2ccccc2)c2ccccc2Oc2ccccc21` [10,10-Dihydro-10-phenyl-10-[[(2-propenyloxy)carbonyl]imino]-10H-phenoxaphosphine]?
A: Potassium (urinary) ([1]; 100 mg/kg by gavage): 0.61 MEQ/5 Hours; Sodium (urinary) ([1]; 100 mg/kg by gavage): 1.27 MEQ/5 Hours; Volume (urine) ([1]; 100 mg/kg by gavage): 12.0 mL

Q: Which “Potassium (urinary)” value ([1]; 100 mg/kg by gavage) does the source give for `CCOC(=O)N=P1(c2ccccc2)c2ccccc2Oc2ccccc21` [10,10-Dihydro-10-[(ethoxycarbonyl)imino]-10-phenyl-10H-phenoxaphosphine] here?
A: 0.49 MEQ/5 Hours

Q: And the “Sodium (urinary)” value ([1]; 100 mg/kg by gavage)?
A: 2.20 MEQ/5 Hours

Q: And the “Volume (urine)” value ([1]; 100 mg/kg by gavage)?
A: 19.0 mL

Q: And the “Percent Inhibition of Plasma Renin Elevation, Av. % Inhibition” value (“Percent Inhibition … Av. % Inhibition” below) (plasma renin activity; 1 mg/kg)?
A: 33%

Q: And the “Percent Inhibition … Av. % Inhibition” value (plasma renin activity; 2 mg/kg)?
A: 54%

Q: What about the “Percent Inhibition … Av. % Inhibition” value (plasma renin activity; 4 mg/kg) of the same molecule?
A: 78%

Q: And the “Percent Inhibition … Av. % Inhibition” value (plasma renin activity; 8 mg/kg)?
A: 91%

Q: What about the “Percent Inhibition … Av. % Inhibition” value (plasma renin activity; 25 mg/kg) of the same molecule?
A: 84%

Q: For `N=P1(c2ccccc2)c2ccccc2Oc2ccccc21` [10,10-Dihydro-10-imino-10-phenyl-10H-phenoxaphosphine, bis(t] [10,10-Dihydro-10-imino-10-phenyl-10H-phenoxaphosphine, bis(trifluoroacetate)], which “Potassium (urinary)” value ([1]; 100 mg/kg by gavage) is on record?
A: 0.66 MEQ/5 Hours

Q: What about the “Sodium (urinary)” value ([1]; 100 mg/kg by gavage) of the same molecule?
A: 1.16 MEQ/5 Hours

Q: What about the “Volume (urine)” value ([1]; 100 mg/kg by gavage) of the same molecule?
A: 12.5 mL

Q: Which “Potassium (urinary)” value ([1]; 100 mg/kg by gavage) does the source give for `CC(C)OC(=O)N=P1(c2ccccc2)c2ccccc2Oc2ccccc21` [10,10-Dihydro-10-[[(1-methylethoxy)carbonyl]imino]-10-phenyl-10H-phenoxaphosphine] here?
A: 0.66 MEQ/5 Hours

Q: What about the “Sodium (urinary)” value ([1]; 100 mg/kg by gavage) of the same molecule?
A: 2.30 MEQ/5 Hours

Q: What about the “Volume (urine)” value ([1]; 100 mg/kg by gavage) of the same molecule?
A: 16.5 mL

Q: What does the source list for `N=P1(c2ccccc2)c2ccccc2Oc2ccccc21` [10,10-Dihydro-10-imino-10-phenyl-10H-phenoxaphosphine, sulfa] [10,10-Dihydro-10-imino-10-phenyl-10H-phenoxaphosphine, sulfate]?
A: stability in solution (Stability in solution): stable in solution; Potassium (urinary) ([1]; 100 mg/kg by gavage): 0.18 MEQ/5 Hours; Sodium (urinary) ([1]; 100 mg/kg by gavage): 1.56 MEQ/5 Hours; Volume (urine) ([1]; 100 mg/kg by gavage): 9.8 mL; Percent Inhibition of Plasma Renin Elevation, Av. % Inhibition (plasma renin activity; 1 mg/kg): 38%; Percent Inhibition of Plasma Renin Elevation, Av. % Inhibition (plasma renin activity; 4 mg/kg): 31% and 42%; Percent Inhibition of Plasma Renin Elevation, Av. % Inhibition (plasma renin activity; 8 mg/kg): 67%

Q: For `O=C(N=P1(c2ccccc2)c2ccccc2Oc2ccccc21)OC1CCCC1` [10-[[(Cyclopentyloxy)carbonyl]imino]-10,10-dihydro-10-phenyl-10H-phenoxaphosphine], which “Potassium (urinary)” value ([1]; 100 mg/kg by gavage) is on record?
A: 0.60 MEQ/5 Hours

Q: What about the “Sodium (urinary)” value ([1]; 100 mg/kg by gavage) of the same molecule?
A: 1.71 MEQ/5 Hours

Q: What about the “Volume (urine)” value ([1]; 100 mg/kg by gavage) of the same molecule?
A: 14.0 mL

Q: With `C#CCOC(=O)N=P1(c2ccccc2)c2ccccc2Oc2ccccc21` [10,10-Dihydro-10-phenyl-10-[[(2-propynyloxy)carbonyl]imino]-10H-phenoxaphosphine] as the molecule, how does the “Potassium (urinary)” value ([1]; 100 mg/kg by gavage) read?
A: 0.61 MEQ/5 Hours

Q: What about the “Sodium (urinary)” value ([1]; 100 mg/kg by gavage) of the same molecule?
A: 1.13 MEQ/5 Hours

Q: And the “Volume (urine)” value ([1]; 100 mg/kg by gavage)?
A: 10.5 mL

Q: What does the source list for `O=C(N=P1(c2ccccc2)c2ccccc2Oc2ccccc21)OCc1ccccc1` [10,10-Dihydro-10-phenyl-10-[[(phenylmethoxy)carbonyl]imino]-10H-phenoxaphosphine]?
A: Potassium (urinary) ([1]; 100 mg/kg by gavage): 0.56 MEQ/5 Hours; Sodium (urinary) ([1]; 100 mg/kg by gavage): 1.32 MEQ/5 Hours; Volume (urine) ([1]; 100 mg/kg by gavage): 12.3 mL

Q: For `O=C(N=P1(c2ccccc2)c2ccccc2Oc2ccccc21)OCC1CC1` [10-[[(Cyclopropylmethoxy)carbonyl]imino]-10,10-dihydro-10-phenyl-10H-phenoxaphosphine], which “Potassium (urinary)” value ([1]; 100 mg/kg by gavage) is on record?
A: 0.75 MEQ/5 Hours

Q: And the “Sodium (urinary)” value ([1]; 100 mg/kg by gavage)?
A: 1.41 MEQ/5 Hours

Q: What about the “Volume (urine)” value ([1]; 100 mg/kg by gavage) of the same molecule?
A: 10.8 mL

Q: Which results are given for `O=C(N=P1(c2ccccc2)c2ccccc2Oc2ccccc21)OC1CCOC1` (stereo not drawn) [10,10-Dihydro-10-phenyl-10-[[[(tetrahydro-3-furanyl)-oxy]carbonyl]imino]-10H-phenoxaphosphine]?
A: Potassium (urinary) ([1]; 100 mg/kg by gavage): 0.73 MEQ/5 Hours; Sodium (urinary) ([1]; 100 mg/kg by gavage): 1.49 MEQ/5 Hours; Volume (urine) ([1]; 100 mg/kg by gavage): 14.3 mL

Q: Which “Potassium (urinary)” value [1, 2] does the source give for `N=P1(c2ccccc2)c2ccccc2Oc2ccccc21` [10,10-Dihydro-10-imino-10-phenyl-10H-phenoxaphosphine, hydrobromide] here?
A: 0.26 MEQ/5 Hours

Q: What about the “Sodium (urinary)” value [1, 2] of the same molecule?
A: 1.12 MEQ/5 Hours

Q: And the “Volume (urine)” value [1, 2]?
A: 8.0 mL

Q: Which “Potassium (urinary)” value ([1]; 100 mg/kg by gavage) does the source give for `O=C(N=P1(c2ccccc2)c2ccccc2Oc2ccccc21)OCc1ccncc1` [10,10-dihydro-10-phenyl-10-[[(4-pyridylmethoxy)carbonyl]imino]-10H-phenoxaphosphine] here?
A: 0.40 MEQ/5 Hours

Q: And the “Sodium (urinary)” value ([1]; 100 mg/kg by gavage)?
A: 2.28 MEQ/5 Hours

Q: What about the “Volume (urine)” value ([1]; 100 mg/kg by gavage) of the same molecule?
A: 18.0 mL

Q: For `O=C(N=P1(c2ccccc2)c2ccccc2Oc2ccccc21)OCc1ccccn1` [10,10-Dihydro-10-phenyl-10-[[(2-pyridylmethoxy)carbonyl]imino]-10H-phenoxaphosphine], which “Potassium (urinary)” value ([1]; 50 mg/kg by gavage) is on record?
A: 0.74 MEQ/5 Hours

Q: What about the “Sodium (urinary)” value ([1]; 50 mg/kg by gavage) of the same molecule?
A: 1.26 MEQ/5 Hours

Q: What about the “Volume (urine)” value ([1]; 50 mg/kg by gavage) of the same molecule?
A: 10.8 mL

Q: What does the source list for `N=P1(c2ccccc2)c2ccccc2Oc2ccccc21` [10,10-Dihydro-10-imino-10-phenyl-10H-phenoxaphosphine, hydrochloride]?
A: Potassium (urinary) [1, 3]: 0.59 MEQ/5 Hours; Sodium (urinary) [1, 3]: 2.01 MEQ/5 Hours; Volume (urine) [1, 3]: 16.5 mL
